Among the data in patent US8586551B2, “18-membered macrocycles and analogs thereof” (Optimer Pharmaceuticals, Inc., priority 2005, dated 2013) are MIC50, MIC90 and MIC range values, retold here.

For orientation: MIC50 means an inhibitory concentration at the 50% level, which refers to growth in some studies and to a panel of isolates in others. A high value points to lower susceptibility. The MIC90 is an inhibitory concentration at the 90% level, which refers to growth in some studies and to a panel of isolates in others. Low readings indicate greater potency, high ones weaker potency.

≈ marks a conversion by molar mass, not a printed value. Where only a bound is given, the exact number is not on record here.

Assay type in all cases: cell-based
One test relates to Fusobacterium mortiferum. The experiment in a line: MIC against anaerobes: Fusobacterium mortiferum. As to conditions: Fusobacterium mortiferum (10). The method, then: The in vitro activity of OPT-80 was determined against 350 anaerobes. The experimental procedure for which is outlined in Antimicrobial Agents and Chemotherapy, 2004, 48: 4430-4434, which is hereby incorporated by reference in its entirety.
All organisms, including the 21 C. difficile strains, were separate isolates and not clonally related. All quality-control gram-negative and -positive strains recommended by NCCLS were included with each run: in every case, results (where available) were in range.

A further test relates to Eggerthella lenta. The experiment in a line: MIC against anaerobes: Eggerthella lenta. The conditions noted are these: Eggerthella lenta (10).
Test [1] concerns Bacteroides fragilis group spp. The experiment in a line: MIC against intestinal bacteria: Bacteroides fragilis group.
A further test deals with Clostridium sordellii. The experiment in a line: MIC against intestinal bacteria: Clostridium sordellii. As to conditions: Clostridium sordellii (5). Here is the method:
The in vitro activity of OPT-80 against intestinal bacteria was evaluated. The experimental procedure for which is outlined in Antimicrobial Agents and Chemotherapy, 2004, 48: 4898-4902, which is hereby incorporated by reference in its entirety.
Antimicrobial concentration ranges were selected to encompass or surpass the levels that would be achieved in the gut (to the extent that this information is available), subject to the limitations of solubility of the drugs in the testing medium. The range of concentration of OPT-80 used during testing was 0.03 μg/ml to 1024 μg/ml.
For analysis, the bacteria tested were generally placed into genus, species, or other groups with at least 10 isolates. The ranges and the MICs at which 50 and 90% of isolates were inhibited were determined except for organisms with fewer than 10 strains tested, for which only the ranges are reported (Table 8).

As to `CCc1c(Cl)c(O)c(Cl)c(O)c1C(=O)O[C@H]1[C@H](O)[C@H](OC)[C@H](OCC2=CC=CC[C@H](O)C(C)=C[C@H](CC)[C@@H](O[C@@H]3OC(C)(C)[C@@H](OC(=O)C(C)C)[C@H](O)[C@@H]3O)C(C)=CC(C)=CC[C@@H]([C@@H](C)O)OC2=O)O[C@@H]1C` [R-Tiacumicin B, 3-[[[6-Deoxy-4-O-(3,5-dichloro-2-ethyl-4,6-dihydroxybenzoyl)-2-O-methyl-β-D-mannopyranosyl]oxy]-methyl]-12(R)-[[6-deoxy-5-C-methyl-4-O-(2-methyl-1-oxopropyl)-β-D-lyxo-hexopyranosyl]oxy]-11(S)-ethyl-8(S)-hydroxy-18(S)-(1(R)-hydroxyethyl)-9,13,15-trimethyloxacyclooctadeca-3,5,9,13,15-pentaene-2-one], the figures for the MIC50 (in the test on Fusobacterium mortiferum; with Eggerthella lenta; in test [1] (Bacteroides fragilis group spp. (50))) were over 128 µg/mL, under 0.016 µg/mL and 256 µg/mL (≈ 242 µM), respectively. Also, the MIC90 against Fusobacterium mortiferum was over 128 µg/mL; in the test with Eggerthella lenta, under 0.03 µg/mL; in test [1] (Bacteroides fragilis), over 1020 µg/mL. Also, the MIC range against Eggerthella lenta is under 0.016 to 0.06 µg/mL; against Clostridium sordellii, 0.06 µg/mL (≈ 0.0567 µM).
